From article PMC5097156, “Potent and selective chemical probe of hypoxic signalling downstream of HIF-α hydroxylation via VHL inhibition” (Nature Communications, 2016)

Columns and labels:
Assay in all cases: biochemical
CB1 (h) = molecular target: T1, CB1 (h) (Homo sapiens, UniProt P21554); parameters: CEREP ExpresSProfile competition binding, remaining control specific binding of reference compound; details: radioligand binding; read-out: Mean % of control specific binding (±sd)
T1 construct: gene CNR1

5-HT7 (h) = molecular target: T2, 5-HT7 (h) (Homo sapiens, UniProt P34969); parameters: CEREP ExpresSProfile competition binding, remaining control specific binding of reference compound; details: radioligand binding; read-out: Mean % of control specific binding (±sd)
T2 construct: gene HTR7

5-HT transporter (h) = molecular target: T3, 5-HT transporter (h) (Homo sapiens, UniProt P31645); parameters: CEREP ExpresSProfile competition binding, remaining control specific binding of reference compound; details: radioligand binding; read-out: Mean % of control specific binding (±sd)
T3 construct: gene SLC6A4

[1] = molecular target: T4, norepinephrine transporter (h) (Homo sapiens, UniProt P23975); parameters: CEREP ExpresSProfile competition binding, remaining control specific binding of reference compound; details: radioligand binding; read-out: Mean % of control specific binding (±sd)
T4 construct: gene SLC6A2

B2 (h) = molecular target: T5, B2 (h) (Homo sapiens, UniProt P30411); parameters: CEREP ExpresSProfile competition binding, remaining control specific binding of reference compound; details: radioligand binding; read-out: Mean % of control specific binding (±sd)
T5 construct: gene BDKRB2

M2 (h) = molecular target: T6, M2 (h) (Homo sapiens, UniProt P08172); parameters: CEREP ExpresSProfile competition binding, remaining control specific binding of reference compound; details: radioligand binding; read-out: Mean % of control specific binding (±sd)
T6 construct: gene CHRM2

A3 (h) = molecular target: T7, A3 (h) (Homo sapiens, UniProt P0DMS8); parameters: CEREP ExpresSProfile competition binding, remaining control specific binding of reference compound; details: radioligand binding; read-out: Mean % of control specific binding (±sd)
T7 construct: gene ADORA3

D2S (h) = molecular target: T8, D2S (h) (Homo sapiens, UniProt P14416); parameters: CEREP ExpresSProfile competition binding, remaining control specific binding of reference compound; details: radioligand binding; read-out: Mean % of control specific binding (±sd)
T8 construct: gene DRD2; D2S short isoform

dopamine transporter (h) = molecular target: T9, dopamine transporter (h) (Homo sapiens, UniProt Q01959); parameters: CEREP ExpresSProfile competition binding, remaining control specific binding of reference compound; details: radioligand binding; read-out: Mean % of control specific binding (±sd)
T9 construct: gene SLC6A3

MT1 (ML1A) (h) = molecular target: T10, MT1 (ML1A) (h) (Homo sapiens, UniProt P48039); parameters: CEREP ExpresSProfile competition binding, remaining control specific binding of reference compound; details: radioligand binding; read-out: Mean % of control specific binding (±sd)
T10 construct: gene MTNR1A

ETA (h) = molecular target: T11, ETA (h) (Homo sapiens, UniProt P25101); parameters: CEREP ExpresSProfile competition binding, remaining control specific binding of reference compound; details: radioligand binding; read-out: Mean % of control specific binding (±sd)
T11 construct: gene EDNRA

AT1 (h) = molecular target: T12, AT1 (h) (Homo sapiens, UniProt P30556); parameters: CEREP ExpresSProfile competition binding, remaining control specific binding of reference compound; details: radioligand binding; read-out: Mean % of control specific binding (±sd)
T12 construct: gene AGTR1

A2A (h) = molecular target: T13, A2A (h) (Homo sapiens, UniProt P29274); parameters: CEREP ExpresSProfile competition binding, remaining control specific binding of reference compound; details: radioligand binding; read-out: Mean % of control specific binding (±sd)
T13 construct: gene ADORA2A

5-HT6 (h) = molecular target: T14, 5-HT6 (h) (Homo sapiens, UniProt P50406); parameters: CEREP ExpresSProfile competition binding, remaining control specific binding of reference compound; details: radioligand binding; read-out: Mean % of control specific binding (±sd)
T14 construct: gene HTR6

NTS1 (NT1) (h) = molecular target: T15, NTS1 (NT1) (h) (Homo sapiens, UniProt P30989); parameters: CEREP ExpresSProfile competition binding, remaining control specific binding of reference compound; details: radioligand binding; read-out: Mean % of control specific binding (±sd)
T15 construct: gene NTSR1

EP4 (h) = molecular target: T16, EP4 (h) (Homo sapiens, UniProt P35408); parameters: CEREP ExpresSProfile competition binding, remaining control specific binding of reference compound; details: radioligand binding; read-out: Mean % of control specific binding (±sd)
T16 construct: gene PTGER4

H2 (h) = molecular target: T17, H2 (h) (Homo sapiens, UniProt P25021); parameters: CEREP ExpresSProfile competition binding, remaining control specific binding of reference compound; details: radioligand binding; read-out: Mean % of control specific binding (±sd)
T17 construct: gene HRH2

A1 (h) = molecular target: T18, A1 (h) (Homo sapiens, UniProt P30542); parameters: CEREP ExpresSProfile competition binding, remaining control specific binding of reference compound; details: radioligand binding; read-out: Mean % of control specific binding (±sd)
T18 construct: gene ADORA1

5-HT5a (h) = molecular target: T19, 5-HT5a (h) (Homo sapiens, UniProt P47898); parameters: CEREP ExpresSProfile competition binding, remaining control specific binding of reference compound; details: radioligand binding; read-out: Mean % of control specific binding (±sd)
T19 construct: gene HTR5A

CK2 = molecular target: T20, CK2 (Homo sapiens, UniProt P68400); parameters: Dundee MRC-PPU Express kinase screen, remaining kinase activity; details: read-out: Mean % of remaining kinase activity (±sd)
T20 construct: gene CSNK2A1

MARK3 = MARK3 (Homo sapiens, UniProt P27448); parameters: Dundee MRC-PPU Express kinase screen, remaining kinase activity; details: read-out: Mean % of remaining kinase activity (±sd)
CAMKKb = molecular target: T21, CAMKKb (Homo sapiens, UniProt Q96RR4); parameters: Dundee MRC-PPU Express kinase screen, remaining kinase activity; details: read-out: Mean % of remaining kinase activity (±sd)
T21 construct: gene CAMKK2

PKBa = molecular target: T22, PKBa (Homo sapiens, UniProt P31749); parameters: Dundee MRC-PPU Express kinase screen, remaining kinase activity; details: read-out: Mean % of remaining kinase activity (±sd)
T22 construct: gene AKT1

EF2K = molecular target: T23, EF2K (Homo sapiens, UniProt O00418); parameters: Dundee MRC-PPU Express kinase screen, remaining kinase activity; details: read-out: Mean % of remaining kinase activity (±sd)
T23 construct: gene EEF2K

TBK1 = TBK1 (Homo sapiens, UniProt Q9UHD2); parameters: Dundee MRC-PPU Express kinase screen, remaining kinase activity; details: read-out: Mean % of remaining kinase activity (±sd)
DYRK1A = DYRK1A (Homo sapiens, UniProt Q13627); parameters: Dundee MRC-PPU Express kinase screen, remaining kinase activity; details: read-out: Mean % of remaining kinase activity (±sd)

T14 sequence (P50406 whole entry): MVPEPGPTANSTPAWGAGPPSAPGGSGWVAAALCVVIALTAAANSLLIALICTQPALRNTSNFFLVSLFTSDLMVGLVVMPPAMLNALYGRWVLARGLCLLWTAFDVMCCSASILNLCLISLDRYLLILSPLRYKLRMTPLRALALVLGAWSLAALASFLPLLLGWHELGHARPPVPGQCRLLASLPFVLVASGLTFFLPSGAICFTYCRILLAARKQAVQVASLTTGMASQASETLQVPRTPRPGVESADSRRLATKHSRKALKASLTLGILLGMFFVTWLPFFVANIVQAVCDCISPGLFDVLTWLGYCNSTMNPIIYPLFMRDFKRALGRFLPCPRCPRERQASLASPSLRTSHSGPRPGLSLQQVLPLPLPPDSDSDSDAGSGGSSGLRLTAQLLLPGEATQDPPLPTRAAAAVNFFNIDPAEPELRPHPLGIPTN
T4 sequence (P23975 whole entry): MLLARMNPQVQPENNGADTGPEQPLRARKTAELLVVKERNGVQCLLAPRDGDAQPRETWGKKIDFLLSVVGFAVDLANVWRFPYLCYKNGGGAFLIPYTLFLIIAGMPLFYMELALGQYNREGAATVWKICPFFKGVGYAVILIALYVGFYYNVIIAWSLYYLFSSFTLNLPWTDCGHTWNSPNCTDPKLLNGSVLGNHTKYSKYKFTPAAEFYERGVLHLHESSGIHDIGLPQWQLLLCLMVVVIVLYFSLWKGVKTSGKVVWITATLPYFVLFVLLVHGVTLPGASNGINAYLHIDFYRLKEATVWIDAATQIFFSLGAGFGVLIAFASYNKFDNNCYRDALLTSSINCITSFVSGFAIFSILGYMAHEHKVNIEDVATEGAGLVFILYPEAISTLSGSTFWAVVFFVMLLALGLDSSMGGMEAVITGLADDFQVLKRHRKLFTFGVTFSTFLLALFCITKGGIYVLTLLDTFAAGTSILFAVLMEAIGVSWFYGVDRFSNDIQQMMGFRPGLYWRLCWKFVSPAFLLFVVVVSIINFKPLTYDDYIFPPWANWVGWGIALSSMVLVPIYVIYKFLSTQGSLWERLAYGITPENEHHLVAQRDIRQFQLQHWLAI
T1 sequence (P21554 whole entry): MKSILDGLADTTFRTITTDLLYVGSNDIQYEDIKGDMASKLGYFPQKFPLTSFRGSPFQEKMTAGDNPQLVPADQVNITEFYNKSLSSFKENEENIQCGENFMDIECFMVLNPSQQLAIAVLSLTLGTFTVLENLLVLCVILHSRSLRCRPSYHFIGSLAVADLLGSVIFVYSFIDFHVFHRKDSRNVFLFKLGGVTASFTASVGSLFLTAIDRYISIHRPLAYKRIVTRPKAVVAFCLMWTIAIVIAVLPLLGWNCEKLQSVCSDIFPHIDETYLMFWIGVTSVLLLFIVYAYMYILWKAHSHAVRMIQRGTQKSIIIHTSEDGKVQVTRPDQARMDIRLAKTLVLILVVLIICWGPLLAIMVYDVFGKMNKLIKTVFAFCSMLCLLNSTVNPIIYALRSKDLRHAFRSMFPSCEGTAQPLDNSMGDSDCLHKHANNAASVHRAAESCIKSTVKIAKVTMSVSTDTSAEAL
T3 sequence (P31645 whole entry): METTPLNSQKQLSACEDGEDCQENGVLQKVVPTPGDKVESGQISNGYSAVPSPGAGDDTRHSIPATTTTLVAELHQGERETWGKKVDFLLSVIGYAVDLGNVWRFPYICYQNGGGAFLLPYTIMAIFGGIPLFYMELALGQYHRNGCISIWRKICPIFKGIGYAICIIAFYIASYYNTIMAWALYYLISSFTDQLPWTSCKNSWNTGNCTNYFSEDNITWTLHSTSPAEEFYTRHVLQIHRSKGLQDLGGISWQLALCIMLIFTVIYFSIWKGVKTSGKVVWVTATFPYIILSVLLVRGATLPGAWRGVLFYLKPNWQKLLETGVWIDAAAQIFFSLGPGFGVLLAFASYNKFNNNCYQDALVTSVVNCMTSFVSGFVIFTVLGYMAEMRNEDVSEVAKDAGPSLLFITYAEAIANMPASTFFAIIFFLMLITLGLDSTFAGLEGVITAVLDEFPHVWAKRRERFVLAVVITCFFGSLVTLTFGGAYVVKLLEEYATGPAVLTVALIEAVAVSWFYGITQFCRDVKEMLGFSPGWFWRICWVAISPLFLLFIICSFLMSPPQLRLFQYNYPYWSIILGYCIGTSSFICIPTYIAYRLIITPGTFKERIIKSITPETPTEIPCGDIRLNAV
T2 sequence (P34969 whole entry): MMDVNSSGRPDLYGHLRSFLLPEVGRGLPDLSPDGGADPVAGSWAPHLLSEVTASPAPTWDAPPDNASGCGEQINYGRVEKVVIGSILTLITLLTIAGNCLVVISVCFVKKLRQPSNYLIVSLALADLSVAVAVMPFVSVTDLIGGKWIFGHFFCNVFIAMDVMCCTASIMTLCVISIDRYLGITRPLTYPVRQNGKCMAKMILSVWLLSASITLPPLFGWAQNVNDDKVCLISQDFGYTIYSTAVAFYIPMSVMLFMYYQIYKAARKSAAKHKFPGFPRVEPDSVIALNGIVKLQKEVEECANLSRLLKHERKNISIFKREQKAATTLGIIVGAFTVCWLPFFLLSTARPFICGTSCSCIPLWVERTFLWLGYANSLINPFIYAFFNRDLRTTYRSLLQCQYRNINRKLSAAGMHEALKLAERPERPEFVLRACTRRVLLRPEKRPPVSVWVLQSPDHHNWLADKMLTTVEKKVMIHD
Chain of TBK1 (Q9UHD2 whole entry): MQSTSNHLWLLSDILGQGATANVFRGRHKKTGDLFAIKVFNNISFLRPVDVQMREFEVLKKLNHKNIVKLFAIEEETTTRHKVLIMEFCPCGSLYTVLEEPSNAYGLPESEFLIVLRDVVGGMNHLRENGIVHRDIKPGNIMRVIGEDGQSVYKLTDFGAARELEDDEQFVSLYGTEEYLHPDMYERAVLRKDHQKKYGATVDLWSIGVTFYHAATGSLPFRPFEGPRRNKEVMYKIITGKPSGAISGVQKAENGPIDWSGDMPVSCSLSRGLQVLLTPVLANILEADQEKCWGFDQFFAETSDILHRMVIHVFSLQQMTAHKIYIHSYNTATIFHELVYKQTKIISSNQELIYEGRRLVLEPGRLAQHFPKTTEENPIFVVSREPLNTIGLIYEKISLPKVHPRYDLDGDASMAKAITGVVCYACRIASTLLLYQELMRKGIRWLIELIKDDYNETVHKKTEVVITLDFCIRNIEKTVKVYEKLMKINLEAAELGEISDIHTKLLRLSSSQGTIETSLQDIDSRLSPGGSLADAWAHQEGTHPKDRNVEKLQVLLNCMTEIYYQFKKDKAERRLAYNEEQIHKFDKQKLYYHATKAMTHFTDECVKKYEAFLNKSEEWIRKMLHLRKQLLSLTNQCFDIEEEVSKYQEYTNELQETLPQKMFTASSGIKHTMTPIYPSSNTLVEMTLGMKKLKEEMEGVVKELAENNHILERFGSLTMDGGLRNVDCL
T19 sequence (P47898 whole entry): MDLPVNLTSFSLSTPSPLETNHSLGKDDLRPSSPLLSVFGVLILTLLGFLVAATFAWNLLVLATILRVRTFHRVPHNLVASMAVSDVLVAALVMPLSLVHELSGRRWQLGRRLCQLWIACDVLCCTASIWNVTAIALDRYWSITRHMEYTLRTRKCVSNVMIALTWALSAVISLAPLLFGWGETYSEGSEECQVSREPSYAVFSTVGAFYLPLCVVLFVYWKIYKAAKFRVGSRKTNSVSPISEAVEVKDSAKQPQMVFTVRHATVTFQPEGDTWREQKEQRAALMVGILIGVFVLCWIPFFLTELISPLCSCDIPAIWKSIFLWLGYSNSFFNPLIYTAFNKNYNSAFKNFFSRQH
T21 sequence (Q96RR4 whole entry): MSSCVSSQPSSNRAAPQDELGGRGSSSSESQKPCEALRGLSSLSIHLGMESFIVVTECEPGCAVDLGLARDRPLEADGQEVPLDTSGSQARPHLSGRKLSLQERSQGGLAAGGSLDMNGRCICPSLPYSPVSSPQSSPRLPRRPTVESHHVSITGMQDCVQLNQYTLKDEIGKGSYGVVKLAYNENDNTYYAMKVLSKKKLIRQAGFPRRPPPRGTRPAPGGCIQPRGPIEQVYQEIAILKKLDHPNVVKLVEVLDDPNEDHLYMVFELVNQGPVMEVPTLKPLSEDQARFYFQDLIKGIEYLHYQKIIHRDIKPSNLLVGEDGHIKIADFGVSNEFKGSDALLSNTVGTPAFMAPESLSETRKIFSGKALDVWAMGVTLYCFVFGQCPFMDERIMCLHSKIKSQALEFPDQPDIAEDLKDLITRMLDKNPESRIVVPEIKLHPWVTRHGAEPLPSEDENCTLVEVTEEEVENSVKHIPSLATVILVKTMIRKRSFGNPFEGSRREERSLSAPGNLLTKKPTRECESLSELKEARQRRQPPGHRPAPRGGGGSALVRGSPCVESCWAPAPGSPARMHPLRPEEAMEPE
T17 sequence (P25021 whole entry): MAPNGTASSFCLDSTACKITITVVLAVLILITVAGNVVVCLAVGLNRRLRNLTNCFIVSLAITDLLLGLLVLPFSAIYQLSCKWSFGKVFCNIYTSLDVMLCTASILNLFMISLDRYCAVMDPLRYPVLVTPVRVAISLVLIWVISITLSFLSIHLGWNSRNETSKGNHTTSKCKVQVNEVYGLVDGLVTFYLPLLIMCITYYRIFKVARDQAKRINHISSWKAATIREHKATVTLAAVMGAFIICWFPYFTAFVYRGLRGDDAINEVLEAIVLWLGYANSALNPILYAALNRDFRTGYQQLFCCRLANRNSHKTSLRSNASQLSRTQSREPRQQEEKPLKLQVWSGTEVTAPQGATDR
T18 sequence (P30542 whole entry): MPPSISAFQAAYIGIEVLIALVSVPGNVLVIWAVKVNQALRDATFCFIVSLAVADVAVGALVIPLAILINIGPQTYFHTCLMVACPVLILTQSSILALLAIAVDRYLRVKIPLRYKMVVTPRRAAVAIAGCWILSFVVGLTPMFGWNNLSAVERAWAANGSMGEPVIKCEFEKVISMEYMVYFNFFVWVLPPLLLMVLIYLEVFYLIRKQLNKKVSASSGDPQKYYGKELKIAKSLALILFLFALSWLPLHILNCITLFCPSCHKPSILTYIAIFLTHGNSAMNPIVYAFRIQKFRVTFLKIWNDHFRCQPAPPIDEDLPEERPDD

Cc1ncsc1-c1ccc(CNC(=O)[C@@H]2C[C@@H](O)CN2C(=O)[C@@H](NC(=O)C2(C#N)CC2)C(C)(C)C)cc1 [VH298]
remaining binding at 50 µM (CB1 (h)): 115%
remaining binding at 50 µM (5-HT7 (h)): 99%
remaining binding at 50 µM (5-HT transporter (h)): 92%
remaining binding at 50 µM [1]: 96%
remaining binding at 50 µM (B2 (h)): 101%
remaining binding at 50 µM (M2 (h)): 94%
remaining binding at 50 µM (A3 (h)): 55%
remaining binding at 50 µM (D2S (h)): 91%
remaining binding at 50 µM (dopamine transporter (h)): 90%
remaining binding at 50 µM (MT1 (ML1A) (h)): 75%
remaining binding at 50 µM (ETA (h)): 88%
remaining binding at 50 µM (AT1 (h)): 84%
remaining binding at 50 µM (A2A (h)): 121%
remaining binding at 50 µM (5-HT6 (h)): 92%
remaining binding at 50 µM (NTS1 (NT1) (h)): 103%
remaining binding at 50 µM (EP4 (h)): 95%
remaining binding at 50 µM (H2 (h)): 140%
remaining binding at 50 µM (A1 (h)): 90%
remaining binding at 50 µM (5-HT5a (h)): 105%
remaining activity at 50 µM (CK2): 116%
remaining activity at 50 µM (MARK3): 94%
remaining activity at 50 µM (CAMKKb): 101%
remaining activity at 50 µM (PKBa): 54%
remaining activity at 50 µM (EF2K): 116%
remaining activity at 50 µM (TBK1): 110%
remaining activity at 50 µM (DYRK1A): 76%
